According to the supplement of paper PMC10307832:

Legend:
Test in all cases: relative viability (nuclei count vs DMSO), 5 days (fraction); higher = more cells survive
[1] = compound: CC1CC(=O)N(C2=CN=C(N=C2N1C3CCCC3)NC4=C(C=C(C=C4)C(=O)NC5CCN(CC5)C)OC)C [NPK76-II-72-1] + Nc1nc2[nH]cc(CCc3ccc(C(=O)N[C@@H](CCC(=O)O)C(=O)O)cc3)c2c(=O)[nH]1 [Pemetrexed] (partner 0.2 µM)
In short: (§1)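 After 5 days of treatment, lung cancer cells in 1536-well plates were fixed and stained in a single step (final 0.05% Triton X-100, 1% formaldehyde, 1 ug/ml Hoechst) and their nuclei counted on 4× images. Treatment had been applied by pin tool the day after seeding as one drug alone or as a fixed anchor-drug dose with five library-drug doses (not always all listed) in √10 steps. Relative viability is the nuclei count of treated wells divided by that of vehicle wells, and values are medians of duplicate plates.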

[2] = compound: CC[C@@H]1C(=O)N(C)c2cnc(Nc3ccc(C(=O)NC4CCN(C)CC4)cc3OC)nc2N1C1CCCC1 [BI-2536] + N=C(N)NC(=N)NCCc1ccccc1 [Phenformin] (partner 250 µM)
In short: as §1

[3] = compound: CC1CC(=O)N(C2=CN=C(N=C2N1C3CCCC3)NC4=C(C=C(C=C4)C(=O)NC5CCN(CC5)C)OC)C [NPK76-II-72-1] + Cc1cc(Nc2cc(N3CCN(C)CC3)nc(Sc3ccc(NC(=O)C4CC4)cc3)n2)n[nH]1 [Tozasertib] (partner 0.1 µM)
In short: as §1

[4] = compound: CC1CC(=O)N(C2=CN=C(N=C2N1C3CCCC3)NC4=C(C=C(C=C4)C(=O)NC5CCN(CC5)C)OC)C [NPK76-II-72-1] + NC(=O)Nc1cc(-c2cccc(F)c2)sc1C(=O)N[C@H]1CCCNC1 [AZD7762] (partner 0.2 µM)
In short: as §1

Cell Line | relative viability ([1]; first compound 0.01 µM) | relative viability ([1]; first compound 0.03162 µM) | relative viability ([1]; first compound 0.1 µM) | relative viability ([1]; first compound 0.3162 µM) | relative viability ([1]; first compound 1 µM) | relative viability ([2]; first compound 0.01 µM) | relative viability ([2]; first compound 0.03162 µM) | relative viability ([2]; first compound 0.1 µM) | relative viability ([2]; first compound 0.3162 µM) | relative viability ([2]; first compound 1 µM) | relative viability ([3]; first compound 0.01 µM) | relative viability ([3]; first compound 0.03162 µM) | relative viability ([3]; first compound 0.1 µM) | relative viability ([3]; first compound 0.3162 µM) | relative viability ([3]; first compound 1 µM) | relative viability ([4]; first compound 0.01 µM) | relative viability ([4]; first compound 0.03162 µM) | relative viability ([4]; first compound 0.1 µM) | relative viability ([4]; first compound 0.3162 µM) | relative viability ([4]; first compound 1 µM)
NCI-H1563 | 0.581 | 0.767 | 0.839 | 0.604 | 0.767 | 0.719 | 0.63 | 0.683 | 0.525 | 0.498 | – | – | – | – | – | – | – | – | – | –
NCI-H1623 | – | – | – | – | – | 0.564 | 0.54 | 0.556 | 0.445 | 0.588 | 0.467 | 0.434 | 0.353 | 0.341 | 0.467 | – | – | – | – | –
NCI-H1648 | 0.633 | 0.648 | 0.702 | 0.739 | 0.732 | – | – | – | – | – | 0.523 | 0.431 | – | – | 0.474 | 0.639 | 0.563 | 0.57 | 0.66 | 0.533
NCI-H1650 | 0.325 | 0.368 | 0.345 | 0.399 | 0.358 | 0.425 | 0.3 | 0.166 | 0.141 | 0.134 | 0.397 | 0.444 | 0.429 | 0.501 | 0.386 | – | – | – | – | –
NCI-H1703 | – | – | – | – | – | – | – | – | – | – | – | – | – | – | – | 0.144 | 0.115 | 0.174 | – | 0.0937
NCI-H1792 | – | 0.961 | 0.627 | 0.636 | 1.06 | 0.451 | 0.49 | 0.301 | 0.0773 | 0.0991 | – | – | – | – | – | – | 0.702 | 0.848 | 0.686 | 0.732
NCI-H2009 | 0.971 | 1.18 | 1 | 1.02 | 1.04 | 0.468 | 0.406 | 0.233 | 0.183 | 0.105 | 0.707 | 0.766 | 0.807 | 0.669 | 0.841 | – | – | – | – | –
NCI-H2023 | 0.229 | 0.228 | 0.236 | 0.253 | 0.268 | 0.406 | 0.408 | 0.119 | 0.0985 | 0.0823 | 0.326 | 0.366 | 0.403 | 0.308 | 0.44 | – | – | – | – | –
NCI-H2228 | 0.307 | 0.359 | 0.33 | 0.339 | 0.343 | 0.328 | 0.214 | 0.129 | 0.106 | 0.102 | 0.243 | 0.265 | 0.341 | 0.213 | 0.422 | – | – | – | – | –
SK-LU-1 | 0.972 | 1.05 | 0.925 | 1.03 | 1.04 | 0.577 | 0.321 | 0.209 | 0.12 | 0.151 | 0.341 | 0.351 | 0.361 | 0.305 | 0.38 | – | – | – | – | –
SK-MES-1 | 0.929 | 0.968 | 0.989 | 1.01 | 1.12 | 0.704 | 0.626 | 0.209 | 0.162 | 0.167 | 0.938 | 0.999 | 0.876 | 0.937 | 0.922 | – | – | – | – | –
SW 1573 | 0.751 | 0.829 | 0.821 | 0.849 | 0.824 | 0.333 | 0.283 | 0.131 | 0.106 | 0.0811 | 0.168 | 0.208 | 0.238 | 0.265 | 0.21 | – | – | – | – | –
